According to BindingDB's records for doi:10.3109/14756366.2011.566221 (Instituto Politécnico Nacional, 2011):

Columns and labels:
Test in all cases: LDH Activity Assay
Conditions in all cases: pH 7.4
[1] = biological target: L-lactate dehydrogenase A chain (Mus musculus, UniProt P06151)
Description: (§1) Lactate dehydrogenase activity was determined by recording the absorbance change at 340 nm produced by the oxidation of NADH. Assays were performed at 37°C. The reagent mixture contained 0.115 mM NADH, 50 mM sodium phosphate buffer, pH 7.4, sodium pyruvate (0.31 mM for LDH-C4 and LDH-B4 and 1.25 mM for LDH-A4) and the enzyme preparation, diluted with phosphate buffer, pH 7.4, to provide a ΔE340 of 0.06-0.07 per minute when the activity was assayed in a 1-cm light path. For determination of dissociation constants, the isozymes, the inhibitors (oxamate or oxamate derivatives) and the coenzyme were incubated with the buffer used in the assay for 10 min at 37°C before adding the substrate.

[2] = biological target: L-lactate dehydrogenase C chain (Mus musculus, UniProt P00342)
Chain of L-lactate dehydrogenase C chain (P00342 whole entry): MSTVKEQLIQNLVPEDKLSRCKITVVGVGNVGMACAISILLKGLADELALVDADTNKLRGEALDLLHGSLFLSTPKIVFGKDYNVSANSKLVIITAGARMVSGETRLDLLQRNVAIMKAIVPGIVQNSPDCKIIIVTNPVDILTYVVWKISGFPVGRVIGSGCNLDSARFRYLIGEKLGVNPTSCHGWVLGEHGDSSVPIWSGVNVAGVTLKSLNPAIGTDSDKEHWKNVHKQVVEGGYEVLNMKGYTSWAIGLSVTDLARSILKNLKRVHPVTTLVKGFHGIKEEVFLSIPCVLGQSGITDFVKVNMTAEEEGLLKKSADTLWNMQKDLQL
Description: as §1

[3] = biological target: L-lactate dehydrogenase B chain (Mus musculus, UniProt P16125)
Chain of L-lactate dehydrogenase B chain (P16125 whole entry): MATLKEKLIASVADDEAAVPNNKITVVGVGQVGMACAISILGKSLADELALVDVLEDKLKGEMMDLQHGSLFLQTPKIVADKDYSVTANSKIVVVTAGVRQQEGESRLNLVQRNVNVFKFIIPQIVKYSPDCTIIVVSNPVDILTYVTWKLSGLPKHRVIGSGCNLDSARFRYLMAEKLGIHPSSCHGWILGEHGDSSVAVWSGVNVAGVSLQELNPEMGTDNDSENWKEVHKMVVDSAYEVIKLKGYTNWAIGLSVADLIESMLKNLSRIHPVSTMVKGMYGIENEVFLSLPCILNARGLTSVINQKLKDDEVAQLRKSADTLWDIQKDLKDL
Description: as §1

With CCNC(=O)C(=O)O [N-Ethyl oxamate] the Ki [1] was 0.14 mM, the Ki [2] was 2 µM and the Ki [3] was 0.035 mM.

With CCCNC(=O)C(=O)O [N-Propyl oxamate] the Ki [1] was 1.75 mM, the Ki [2] was 12 µM and the Ki [3] was 0.887 mM.

In the case of CCCCNC(=O)C(=O)O [N-Butyl oxamate], the Ki [1] is reported as 9.1 mM, the Ki [2] is reported as 750 µM and the Ki [3] is reported as 7 mM.

CCC(C)NC(=O)C(=O)O (stereo not drawn) [N-sec-Butyl oxamate] gave a Ki [1] of 12.5 mM, a Ki [2] of 400 µM and a Ki [3] of 14.5 mM.

CC(C)CNC(=O)C(=O)O [N-Isobutyl oxamate] was tested, and the Ki [1] was 6 mM, the Ki [2] was 2000 µM and the Ki [3] was 7 mM.

In the case of NC(=O)C(=O)O [carbamoylformic acid], the Ki [1] is reported as 0.08 mM, the Ki [2] is reported as 30 µM and the Ki [3] is reported as 0.06 mM.
